Assays:
Rattus norvegicus [1] = assay: Antiinflammatory activity against carrageenan-induced fisher 344 rat paw edema model assessed as inhibition of granuloma at 100 mg/kg; assay type: functional
[2] = Acute toxicity in ip dosed albino mouse after 24 hrs; assay type: organism-based; details: in vivo
Rattus norvegicus [3] = assay: Antiinflammatory activity against carrageenan-induced fisher 344 rat paw edema model assessed as reduction of paw volume at 50 mg/kg, ip after 3.5 hrs by plethysmometer; assay type: functional; details: fisher 344, ip, route intraperitoneal
Mus musculus [4] = assay: Toxicity in albino mouse assessed as toxic symptom at 500 to 1000 mg/kg, ip after 24 hrs; assay type: organism-based; design: dose 500-1000 mg/kg, route intraperitoneal; details: in vivo
Mus musculus [5] = assay: Toxicity in albino mouse assessed as mortality at 500 to 1000 mg/kg, ip after 24 hrs; assay type: organism-based; design: dose 500-1000 mg/kg, route intraperitoneal; details: in vivo
Rattus norvegicus [6] = assay: Antiinflammatory activity against carrageenan-induced fisher 344 rat paw edema model assessed as inhibition of granuloma; assay type: functional, organism-based

Structure (SMILES) | inhibition in vivo at 100 mg/kg (Rattus norvegicus [1]) [%] | LD50 at 24 h [2] [µmol/kg] | inhibition in vivo at 50 mg/kg (Rattus norvegicus [3]) [%] | Activity (Mus musculus [4]) | Activity (Mus musculus [5]) | Activity (Rattus norvegicus [6])
CCOP1(=O)OC(C)=c2sc(Br)cc2=C1C(=O)OC (stereo not drawn) | 68.1 | > 300 | 68.1 |  |  | 
CCOP(=O)(/C=C\c1cc2c(s1)=C(C)OP(=O)(OCC)C=2C)OCC (stereo not drawn) |  | > 300 | 87.6 | Non-toxic | Non-toxic | 
CCOP1(=O)OC2(C)C(=O)C=CC2(C)C1C(=O)OC (stereo not drawn) | 63.2 | > 300 | 63.2 |  |  | 
CCOP1(=O)OC(C)=c2sc(C(C(=O)OC)P(=O)(OCC)OCC)cc2=C1C(=O)OC (stereo not drawn) |  | > 300 | 75.9 | Non-toxic | Non-toxic | Dose-dependent effect
CCOP1(=O)OC2(C)C(=O)C=CC2(C)C1C#N (stereo not drawn) | 66.6 | > 300 | 66.6 |  |  | 
COc1ccc2c(c1)c(CC(=O)O)c(C)n2C(=O)c1ccc(Cl)cc1 [INDOMETHACIN] |  | > 300 | 68.4 |  |  | 
CCOC(=O)C1C2(C)C=CC(=O)C2(C)OP1(=O)OCC (stereo not drawn) | 59.7 | > 300 | 59.7 |  |  | 
CCOP1(=O)OC(C)=c2sc(Br)cc2=C1C#N (stereo not drawn) | 62.8 | > 300 | 62.8 |  |  | 
CCOP1(=O)OC(C)=c2sc(C(C#N)P(=O)(OCC)OCC)cc2=C1C#N (stereo not drawn) |  | > 300 | 81.1 | Non-toxic | Non-toxic | 
CCOC(=O)C1=c2cc(C(C(=O)OCC)P(=O)(OCC)OCC)sc2=C(C)OP1(=O)OCC (stereo not drawn) |  | > 300 | 76.1 | Non-toxic | Non-toxic | Dose-dependent effect
CCOC(=O)C1=c2cc(Br)sc2=C(C)OP1(=O)OCC (stereo not drawn) | 60.4 | > 300 | 60.4 |  |  | 

Source: ChEMBL document CHEMBL1275304, “Use of phosphonyl carbanions in the synthesis of anti-inflammatory active phosphorus-containing fused heterocycles and relevance phosphonates” (Eur J Med Chem, 2010)
